From patent US9085555B2, “Complement pathway modulators and uses thereof” (priority 2011, dated 2015) come the findings set out here.

The IC50 is the concentration that inhibits the measured activity by half.

The experiment concerns the target Factor D (Homo sapiens (Human), UniProt P00746). In words: biochemical. It counts as biochemical. The following applies: read-out: IC50.

Sequence of Factor D (P00746 26-253): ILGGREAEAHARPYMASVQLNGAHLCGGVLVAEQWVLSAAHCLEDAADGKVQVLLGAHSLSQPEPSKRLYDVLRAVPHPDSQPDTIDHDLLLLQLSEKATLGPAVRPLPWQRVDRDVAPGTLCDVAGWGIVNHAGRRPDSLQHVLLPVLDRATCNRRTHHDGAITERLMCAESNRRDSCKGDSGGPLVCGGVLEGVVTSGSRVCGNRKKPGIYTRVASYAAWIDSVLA

In the case of `NC(=O)n1cc(NC(=O)N2C[C@@H](C(F)(F)F)C[C@H]2C(=O)NCc2cccc(Cl)c2F)c2ccccc21` [Example 147, (2S,4S)-4-Trifluoromethyl-pyrrolidine-1,2-dicarboxylic acid 1-[(1-carbamoyl-1H-indol-3-yl)-amide] 2-(3-chloro-2-fluoro-benzylamide)], the IC50 stood at 0.12 µM. `NC(=O)n1cc(NC(=O)N2CC[C@@H]3C[C@@]32C(=O)NCc2cccc(Cl)c2F)c2ccccc21` [Example 149, (1S,5R)-2-Aza-bicyclo[3.1.0]hexane-1,2-dicarboxylic acid 2-[(1-carbamoyl-1H-indol-3-yl)-amide] 1-(3-chloro-2-fluoro-benzylamide)]: the IC50 is 10.8 µM. The same measure for `CC1(C)SC[C@@H](C(=O)Nc2cccc(OC(F)(F)F)c2)N1C(=O)Nc1cn(C(N)=O)c2ccccc12` [Example 151, (R)-2,2-Dimethyl-thiazolidine-3,4-dicarboxylic acid 3-[(1-carbamoyl-1H-indol-3-yl)-amide] 4-[(3-trifluoromethoxy-phenyl)-amide]]: 9.32 µM; for `N#Cc1ccc(-c2cccc(NC(=O)[C@@H]3CCCN3C(=O)Nc3cn(C(N)=O)c4ccccc34)c2)cc1` [Example 152, (S)-pyrrolidine-1,2-dicarboxylic acid 1-[(1-carbamoyl-1H-indol-3-yl)amide]2-[(4′-cyano-biphenyl-3-yl)-amide]]: 4.4 µM. As to `COC(=O)c1cc(Br)cc(NC(=O)[C@@H]2C[C@@H](F)CN2C(=O)Nc2cn(C(N)=O)c3ccccc23)c1` [Example 153, 3-Bromo-5-{[(2S,4R)-1-(1-carbamoyl-1H-indol-3-ylcarbamoyl)-4-fluoro-pyrrolidine-2-carbamoyl]-amino}-benzoic acid methyl ester], the IC50 is 0.055 µM. For `CN(C)CCNC(=O)c1cc(Cl)c(F)c(CNC(=O)[C@@H]2C[C@@H](F)CN2C(=O)Nc2cn(C(N)=O)c3ccccc23)c1` [Example 154, (2S,4R)-4-Fluoro-pyrrolidine-1,2-dicarboxylic acid 1-[(1-carbamoyl-1H-indol-3-yl)-amide] 2-[3-chloro-5-(2-dimethylamino-ethyl-carbamoyl)-2-fluoro-benzylamide]], the IC50 was 1.37 µM. For `NC(=O)n1cc(NC(=O)N2C3CC3C[C@H]2C(=O)NCc2ccc(Cl)s2)c2ccccc21` (stereo partly drawn) [Example 155, (1R,3S,5R)-2-Aza-bicyclo[3.1.0]hexane-2,3-dicarboxylic acid 2-[(1-carbamoyl-1H-indol-3-yl)-amide] 3-[(5-chloro-thiophen-2-ylmethyl)-amide]] the value was 0.02 µM.

Regarding `COC(=O)c1ccc(NC(=O)[C@@H]2C[C@@H](F)CN2C(=O)Nc2cn(C(N)=O)c3ccccc23)cc1Br` [Example 156, 2-Bromo-4-{[(2S,4R)-1-(1-carbamoyl-1H-indol-3-ylcarbamoyl)-4-fluoro-pyrrolidine-2-carbonyl]-amino}-benzoic acid methyl ester], the IC50 was found to be 0.15 µM. Consider `CCc1cccc(NC(=O)[C@@H]2CC3CC3N2C(=O)Nc2cn(C(N)=O)c3ccccc23)n1` (stereo partly drawn) [Example 158, (1R,3S,5R)-2-Aza-bicyclo[3.1.0]hexane-2,3-dicarboxylic acid 2-[(1-carbamoyl-1H-indol-3-yl)-amide] 3-[(6-ethyl-pyridin-2-yl)-amide]], for which the IC50 came out at 0.08 µM.

Take `NC(=O)n1cc(NC(=O)N2C[C@H](F)C[C@H]2C(=O)Nc2cc(Br)cc(C(=O)O)c2)c2ccccc21` [Example 159, 3-bromo-5-{[(2S,4R)-1-(1-carbamoyl-1H-indol-3-ylcarbamoyl)-4-fluoro-pyrrolidine-2-carbonyl]-amino}-benzoic acid]: the IC50 was determined as 0.055 µM.

Turning to `CC(C)(C)c1csc(NC(=O)[C@@H]2CCCN2C(=O)Nc2cn(C(N)=O)c3ccccc23)n1` [Example 160, (S)-Pyrrolidine-1,2-dicarboxylic acid 2-[(4-tert-butyl-thiazol-2-yl)-amide] 1-[(1-carbamoyl-1H-indol-3-yl)-amide]], the IC50 worked out at 1.4 µM. For `NC(=O)n1cc(NC(=O)N2CSC[C@H]2C(=O)Nc2cccc(OC(F)(F)F)c2)c2ccccc21` [Example 161, (R)-Thiazolidine-3,4-dicarboxylic acid 3-[(1-carbamoyl-1H-indol-3-yl)-amide] 4-[(3-trifluoromethoxy-phenyl)-amide]] the value was 0.987 µM. For the molecule `COCCOc1ccc2c(c1)c(NC(=O)N1C3CC3C[C@H]1C(=O)NCc1cccc(Cl)c1F)cn2C(N)=O` (stereo partly drawn) [Example 162, (1R,3S,5R)-2-Aza-bicyclo[3.1.0]hexane-2,3-dicarboxylic acid 2-{[1-carbamoyl-5-(2-methoxy-ethoxy)-1H-indol-3-yl]-amide} 3-(3-chloro-2-fluoro-benzylamide)], the IC50 was 0.005 µM. In the case of `CCc1cccc(NC(=O)[C@@H]2C[C@@H](F)CN2C(=O)Nc2cn(C(N)=O)c3ccccc23)n1` [Example 163, (2S,4R)-4-Fluoro-pyrrolidine-1,2-dicarboxylic acid 1-[(1-carbamoyl-1H-indol-3-yl)-amide] 2-[(6-ethyl-pyridin-2-yl)-amide]], the IC50 was determined as 0.1 µM.

Turning to `C[C@]1(O)C[C@@H](C(=O)NCc2cccc(Cl)c2F)N(C(=O)Nc2cn(C(N)=O)c3ccccc23)C1` [Example 164, (2S,4S)-4-Hydroxy-4-methyl-pyrrolidine-1,2-dicarboxylic acid 1-[(1-carbamoyl-1H-indol-3-yl)-amide] 2-(3-chloro-2-fluoro-benzylamide)], the IC50 was found to be 0.4 µM. Regarding `Cc1ncc(NC(=O)[C@@H]2C[C@@H](F)CN2C(=O)Nc2cn(C(N)=O)c3ccccc23)cc1Br` [Example 165, (2S,4R)-4-Fluoro-pyrrolidine-1,2-dicarboxylic acid 1-[(1-carbamoyl-1H-indol-3-yl)-amide] 2-[(5-bromo-4-methyl-pyridin-3-yl)-amide]], the IC50 was found to be 0.14 µM. In the case of `NC(=O)n1cc(NC(=O)N2C3CC3C[C@H]2C(=O)NCc2cccc(Cl)c2F)c2ccccc21` (stereo partly drawn) [Example 166, (1R,3S,5R)-2-Aza-bicyclo[3.1.0]hexane-2,3-dicarboxylic acid 2-[(1-carbamoyl-1H-indol-3-yl)-amide] 3-(3-chloro-2-fluoro-benzylamide)], the IC50 worked out at 0.003 µM. `Cc1ncc(Br)cc1NC(=O)[C@@H]1C[C@@H](F)CN1C(=O)Nc1cn(C(N)=O)c2ccccc12` [Example 168, (2S,4R)-4-Fluoro-pyrrolidine-1,2-dicarboxylic acid 2-[(5-bromo-2-methyl-pyridin-3-yl)-amide] 1-[(1-carbamoyl-1H-indol-3-yl)-amide]]: the IC50 is 0.25 µM.

Regarding `NC(=O)n1cc(NC(=O)N2CCS[C@H]2C(=O)NCc2cccc(F)c2F)c2ccccc21` [Example 169, (S)-Thiazolidine-2,3-dicarboxylic acid 3-[(1-carbamoyl-1H-indol-3-yl)-amide] 2-(2,3-difluoro-benzylamide)], the IC50 was determined as 0.268 µM. `NC(=O)n1cc(NC(=O)N2CCC[C@H]2C(=O)NCc2cccc(Cl)c2F)c2ccccc21` [Example 170, (S)-Pyrrolidine-1,2-dicarboxylic acid 1-[(1-carbamoyl-1H-indol-3-yl)-amide] 2-(3-chloro-2-fluoro-benzylamide)]: the IC50 amounted to 0.03 µM. With `NC(=O)n1cc(NC(=O)N2[C@@H]3C[C@@H]3C[C@H]2C(=O)Nc2cncc(Br)c2)c2ccccc21` [Example 171, (1R,3S,5R)-2-Aza-bicyclo[3.1.0]hexane-2,3-dicarboxylic acid 2-[(1-carbamoyl-1H-indol-3-yl)-amide] 3-[(5-bromo-pyridin-3-yl)-amide]], the IC50 amounted to 0.2 µM.

In the case of `NC(=O)n1cc(NC(=O)N2[C@@H]3C[C@@H]3C[C@H]2C(=O)Nc2ncccc2F)c2ccccc21` [Example 172, (1R,3S,5R)-2-Aza-bicyclo[3.1.0]hexane-2,3-dicarboxylic acid 2-[(1-carbamoyl-1H-indol-3-yl)-amide] 3-[(3-fluoro-pyridin-2-yl)-amide]], the IC50 was 1.05 µM.

Turning to `NC(=O)n1cc(NC(=O)N2CCS[C@H]2C(=O)NCc2cccc(Cl)c2)c2ccccc21` [Example 174, (S)-Thiazolidine-2,3-dicarboxylic acid 3-[(1-carbamoyl-1H-indol-3-yl)-amide] 2-(3-chloro-benzylamide)], the IC50 turned out to be 0.035 µM.

`NC(=O)n1cc(NC(=O)N2C3CC3C[C@H]2C(=O)Nc2cccc(Cl)c2F)c2ccccc21` (stereo partly drawn) [Example 176, (1R,3S,5R)-2-Aza-bicyclo[3.1.0]hexane-2,3-dicarboxylic acid 2-[(1-carbamoyl-1H-indol-3-yl)-amide] 3-[(3-chloro-2-fluoro-phenyl)-amide]]: the IC50 amounted to 0.03 µM. `NC(=O)n1cc(NC(=O)N2CC[C@@H](O)[C@H]2C(=O)NCc2cccc(Cl)c2)c2ccccc21` [Example 177, (2S,3R)-3-Hydroxy-pyrrolidine-1,2-dicarboxylic acid 1-[(1-carbamoyl-1H-indol-3-yl)-amide] 2-(3-chloro-benzylamide)]: the IC50 stood at 0.085 µM. Turning to `NC(=O)n1cc(NC(=O)N2CCS[C@H]2C(=O)NCc2cccc(Cl)c2F)c2ccccc21` [Example 178, (S)-Thiazolidine-2,3-dicarboxylic acid 3-[(1-carbamoyl-1H-indol-3-yl)-amide] 2-(3-chloro-2-fluoro-benzylamide)], the IC50 was found to be 0.006 µM. In the case of `[N-]=[N+]=NC[C@H]1CC[C@@H](C(=O)Nc2cccc(OC(F)(F)F)c2)N1C(=O)Nc1cn(C(N)=O)c2ccccc12` [Example 179, (2S,5R)-5-azidomethyl-pyrrolidine-1,2-dicarboxylic acid 1-[(1-carbamoyl-1H-indol-3-yl)-amide]2-[(3-trifluoromethoxy-phenyl)-amide]], the IC50 stood at 0.4 µM. For `NC(=O)n1cc(NC(=O)N2CC3(CC3)C[C@H]2C(=O)NCc2cccc(Cl)c2)c2ccccc21` [Example 180, (S)-5-Aza-spiro[2.4]heptane-5,6-dicarboxylic acid 5-[(1-carbamoyl-1H-indol-3-yl)-amide] 6-(3-chloro-benzylamide)] the value was 0.65 µM; for `NC(=O)n1cc(NC(=O)N2C[C@@](F)(CO)C[C@H]2C(=O)NCc2cccc(Cl)c2F)c2ccccc21` [Example 181, (2S,4R)-4-Fluoro-4-hydroxymethyl-pyrrolidine-1,2-dicarboxylic acid 1-[(1-carbamoyl-1H-indol-3-yl)-amide] 2-(3-chloro-2-fluoro-benzylamide)], 0.02 µM.
